Results from US20240252674A1, “AGENTS FOR DIRECTED CONJUGATION TECHNIQUES AND CONJUGATED PRODUCTS” (Biohaven Therapeutics Ltd., priority 2021, published 2024).
Read-outs that look alike come from different tables or passages of the source. Where no end group is shown, it is not given here.

Legend:
[1] = target: IgG; test: Binding of peptide IgG binder (directing group) to IgG; conditions: Kd of the directing group included in the peptide IgG binder
[2] = target: Immunoglobulin G
[3] = target: Immunoglobulin G; remark: listed apart in the source

DCAWXLGELVWCT peptide [cyclic peptide IgG binder]
Kd [1]: 15 nM

GSYWYDVWF peptide [linear peptide IgG binder]
Kd [1]: 600 nM

cyclic peptide IgG binder (DCAWXLGELVWCT peptide)
Kd [2]: 15 nM

GSYWYDVWF (not fully specified) [linear peptide IgG binder (… peptide)]
Kd [3]: 600 nM
